# Test results from article PMC10287695, “Non-covalent inhibitors of thioredoxin glutathione reductase with schistosomicidal activity in vivo” (Nature Communications, 2023).
# Several values for one entry are separate records, joined by “and”; a condition that tells them apart may be missing. Equal values may be shown once.
# Key:
# S. mansoni TGR = biological target: T1, S. mansoni TGR (Schistosoma mansoni, UniProt Q962Y6); test: S. mansoni TGR enzyme inhibition (DTNB reduction); assay type: biochemical
# T1 construct: made in house
# T1 sequence (Q962Y6 1-598): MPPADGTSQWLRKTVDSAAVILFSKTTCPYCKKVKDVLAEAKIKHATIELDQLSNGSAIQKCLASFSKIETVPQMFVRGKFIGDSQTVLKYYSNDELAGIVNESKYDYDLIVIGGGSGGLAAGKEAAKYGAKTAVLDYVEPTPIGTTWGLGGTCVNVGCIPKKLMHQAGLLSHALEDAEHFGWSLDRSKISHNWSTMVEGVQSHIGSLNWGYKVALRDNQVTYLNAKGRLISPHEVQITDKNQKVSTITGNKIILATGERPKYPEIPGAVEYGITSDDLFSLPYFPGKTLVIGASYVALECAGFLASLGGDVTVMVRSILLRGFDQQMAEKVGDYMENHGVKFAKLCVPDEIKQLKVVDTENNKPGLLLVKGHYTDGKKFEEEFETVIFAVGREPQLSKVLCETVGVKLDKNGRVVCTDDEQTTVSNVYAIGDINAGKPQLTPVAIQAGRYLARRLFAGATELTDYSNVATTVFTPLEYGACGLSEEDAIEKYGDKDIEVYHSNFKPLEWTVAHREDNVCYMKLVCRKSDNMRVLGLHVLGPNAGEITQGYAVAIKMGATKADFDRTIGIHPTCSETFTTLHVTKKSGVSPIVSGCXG
# Method: Recombinant TGR, human TrxR1, B. malayi (Bm)TrxR and human GR proteins were expressed and purified as described[20],[69],[79]. The codon optimized sequence for P. falciparum (PfTrxR, https://www.ncbi.nlm.nih.gov/protein/CAA60574.1/) with an N-terminal 6-His tag was synthesized and inserted into pET15b (GenScript) and expressed in BL21 (DE3) cells and purified as described for human GR[20]. TGR and TrxR enzyme inhibition assays were performed in triplicate at 25 °C as described[20] in 0.1 M potassium phosphate (pH 7.4), 10 mM EDTA, 100 µM NADPH and 0.01% Tween-20. […] The reaction was started with addition of an equal volume of DTNB (6 mM) and NADPH (100 µM) and the increase in A412 during the first 3 min was recorded. […] The reaction was preincubated for 15 min. Activity was initiated with the addition of 1 mM GSSG and 100 μM NADPH and initial rates of NADPH oxidation were monitored at 340 nm. The reactions were done in triplicate. The IC50 was calculated in GraphPad Prism.
# recombinant TGR = biological target: T2, recombinant TGR (Schistosoma mansoni, UniProt Q962Y6); test: Photolabeling of TGR with PRP; assay type: binding, S. mansoni; conditions: for 800 nm Normalized Signal: TGR 1 µM
# T2 construct: made in house
# Method: […] The photocrosslinking and CuAAC click biotinylation were performed as previously described by our group. After resolving samples on SDS-PAGE and nitrocellulose membrane transfer, western blot normalization was performed with the Licor Revert™ 700 Total Protein Stain Kit as described in their protocol. Protein was finally imaged with the Licor IRDye® 800CW streptavidin on the Odyssey Sa imager.
# [1] = biological target: S. mansoni histone deacetylase 8 (Schistosoma mansoni, UniProt A5H660); test: Photolabeling of control protein SmHDAC8 with PRP; assay type: binding; conditions: for 800 nm Normalized Signal: SmHDAC8 1 µM
# Method: TGR (1 µM) or SmHDAC8 (1 µM) was incubated at concentrations of either 5 or 50 µM PRP with or without 100 µM NADPH totaling eight samples. The photocrosslinking and CuAAC click biotinylation were performed as previously described by our group. After resolving samples on SDS-PAGE and nitrocellulose membrane transfer, western blot normalization was performed with the Licor Revert™ 700 Total Protein Stain Kit as described in their protocol. Protein was finally imaged with the Licor IRDye® 800CW streptavidin on the Odyssey Sa imager.
# [2] = Reactivity with GSH or N-Boc protected methyl ester of selenocysteine (LCMS); assay type: physicochemical; conditions: up to 120 h
# Method: Dimethyl bis(N-tert-butoxycarbonyl)-L-selenocystine was synthesized as reported previously. (N-tert-butoxycarbonyl)-L-selenocysteine methyl ester was prepared in situ[86] in methanol or phosphate buffer. Compound 2 was added to the solution of (N-tert-butoxycarbonyl)-L-selenocysteine methyl ester in either methanol or phosphate buffer and incubated for 40 min, 24 h, and 120 h under N2 gas balloon. Additional amounts of NaBH4 were added at 12 h and 96 h to maintain the reducing conditions. Aliquots taken from methanol solution at each of the time points were concentrated in vacuo, mixed with water, and extracted with ethyl acetate. The organic layer was separated, concentrated in vacuo, re-dissolved in methanol and analyzed by LCMS. Aliquots taken from the phosphate buffer solution were extracted with ethyl acetate. The resulting organic layer was separated and concentrated in vacuo. The residue was re-dissolved in methanol and analyzed by LCMS. […] No additional spots were detected by TLC as well.
# Covalent TGR inhibitor TRi-1 was used as a positive control for the reaction with (N-tert-butoxycarbonyl)-L-selenocysteine methyl ester. The reactivity of TRi-1 was tested similarly as described above for compound 2.
# TGR [3] = biological target: T3, TGR (Schistosoma mansoni, UniProt Q962Y6); test: Reversibility by jump dilution; assay type: biochemical
# T3 construct: made in house
# T3 sequence (Q962Y6 1-598): T1 sequence (Q962Y6 1-598)
# Method: A reaction of 370 nM TGR, 100 µM NADPH, and 250 µM inhibitor was incubated for 15 min at room temperature. A 100x dilution of the reaction was made and the activity was determined immediately and after 60 min.
# TGR [4] = biological target: T4, TGR (Schistosoma mansoni, UniProt Q962Y6, X597U); test: Superoxide production (pyrogallol red); assay type: biochemical, S. mansoni; conditions: replicates
# T4 construct: made in house
# Method: The production of superoxide by TGR was determined by monitoring reaction of superoxide with pyrogallol red[80]. Briefly, a 1 ml reaction mix (500 nM TGR, 100 µM NADPH, and 20–50 µM inhibitor) was incubated at room temperature for 30 min for fast inhibitors, or 2 h for slow inhibitors. For irreversible inhibitor controls TRi-1 (synthesized in house as reported[45]), Stattic (Cayman Chemical), and AF (Cayman Chemical), the samples were desalted using a Zeba spin desalting column. 100 µL of sample was combined with pyrogallol buffer with and without superoxide dismutase (SOD) (50 µM pyrogallol red, 300 µM NADPH; ± 10 units SOD). The reaction was measured at A340 and A540 simultaneously for 2 h.
# TGR [5] = biological target: T4, TGR; test: NADPH consumption (oxidase activity); assay type: biochemical, S. mansoni
# Method: TRi-1, Stattic (both at 50 µM) and AF (20 µM) were incubated with 1 ml of 500 nM TGR and 100 µM NADPH in TGR reaction buffer for 30 min. The samples were desalted using a Zeba spin desalting column (Thermo Fisher Scientific) and 100 µl of the desalted sample was combined with 100 µl of 100 µM NADPH. NADPH consumption was monitored at 340 nm in triplicate. Compounds 1, 4, 6, and 7 (50 µM) were tested in the same fashion without the desalting step and with a first incubation step of 30 min for 6 and 7 and 2 h for 1 and 4.
# [6] = D0: diluted 1:100, activity determined immediately, list for plotting
# [7] = D60: diluted 1:100, activity determined after 60 min, list for plotting
# S. mansoni histone deacetylase 8, sequence (A5H660 entry or part of it): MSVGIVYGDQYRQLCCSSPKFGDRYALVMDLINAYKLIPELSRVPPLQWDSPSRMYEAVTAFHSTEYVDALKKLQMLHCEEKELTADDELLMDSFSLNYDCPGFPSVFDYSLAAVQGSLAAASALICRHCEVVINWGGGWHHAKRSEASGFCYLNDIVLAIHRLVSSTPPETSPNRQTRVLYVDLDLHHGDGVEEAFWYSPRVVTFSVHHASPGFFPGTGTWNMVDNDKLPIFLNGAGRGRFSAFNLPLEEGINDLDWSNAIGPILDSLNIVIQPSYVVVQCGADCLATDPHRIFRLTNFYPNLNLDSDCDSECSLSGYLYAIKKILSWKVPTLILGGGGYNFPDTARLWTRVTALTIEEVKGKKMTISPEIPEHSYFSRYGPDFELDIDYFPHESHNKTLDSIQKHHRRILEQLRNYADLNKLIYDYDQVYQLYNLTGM
smiles,measurement,setting,value
C#CCN(CCCNC(=O)c1c(F)c(F)c(N=[N+]=[N-])c(F)c1F)[C@@H]1C[C@@H]2C[C@H]([C@H]1C)C2(C)C [PRP],IC50,S. mansoni TGR; 15 min preincubation (enzyme + 100 µM NADPH + compound),34.9 ± 6.11 µM
same,inhibition at 15 µM,S. mansoni TGR; read-out: TGR % inhibition,30.8%
same,inhibition at 30 µM,S. mansoni TGR; read-out: TGR % inhibition,47.5%
same,inhibition at 66.7 µM,S. mansoni TGR; read-out: TGR % inhibition,55.1%
same,labeling of TGR with NADPH versus without NADPH,recombinant TGR; 5 and 50 μM PRP,more effective
same,800 nm Normalized Signal,"recombinant TGR; PRP 2 µM, NADPH 0 µM",57760
same,800 nm Normalized Signal,"recombinant TGR; PRP 2 µM, NADPH 100 µM",84928
same,800 nm Normalized Signal,"recombinant TGR; PRP 10 µM, NADPH 0 µM",151239
same,800 nm Normalized Signal,"recombinant TGR; PRP 10 µM, NADPH 100 µM",231567
same,800 nm Normalized Signal,"[1]; PRP 5 µM, NADPH 0 µM",1385
same,800 nm Normalized Signal,"[1]; PRP 5 µM, NADPH 100 µM",2194
same,800 nm Normalized Signal,"[1]; PRP 50 µM, NADPH 0 µM",298
same,800 nm Normalized Signal,"[1]; PRP 50 µM, NADPH 100 µM",1875
same,labeling of S. mansoni histone deacetylase 8,[1]; with or without NADPH,not labeled
"COc1ccc([N+](=O)[O-])c(S(=O)(=O)c2ccc(Cl)cc2)n1 [TRi-1, reference compound]",reaction with thiol or selenol groups in GSH or protected selenocysteine,[2],An adduct between TRi-1 was detected
same,reversibility of TGR inhibition,"TGR [3]; 250 µM inhibitor, 100-fold jump dilution",irreversible
same,"% Activity (ID list), D0",TGR [3]; [6],-1.4% and -0.0373% and 0.6%
same,"% Inhibition (ID list), D0",TGR [3]; [6],101.4% and 100.0% and 99.4%
same,"% Activity (ID list), D60",TGR [3]; [7],2.1% and 1.1% and 1.2%
same,"% Inhibition (ID list), D60",TGR [3]; [7],97.9% and 98.9% and 98.8%
same,"% Activity, 0 min","TGR [3]; [0, D0]: 15 min preincubation inhibitor + TGR + NADPH, diluted 1:100, then activity determined immediately, relative to DMSO",-1.437% and -0.03726% and 0.6084%
same,"Inhibitor (rate), 60 min","TGR [3]; [60, D60]: 15 min preincubation inhibitor + TGR + NADPH, diluted 1:100, then activity determined after 60 min, raw rate",0.001123 and 0.0005896 and 0.0006645
same,"% Activity, 60 min","TGR [3]; [60, D60]: 15 min preincubation inhibitor + TGR + NADPH, diluted 1:100, then activity determined after 60 min, relative to DMSO",2.121% and 1.115% and 1.1607%
same,"Inhibitor (rate), -15","TGR [3]; [-15]: 15 min preincubation inhibitor + TGR + NADPH, then activity determined, raw rate, replicates",0.0012 and -0.0009 and -0.001
same,"% Activity, -15","TGR [3]; [-15]: 15 min preincubation inhibitor + TGR + NADPH, then activity determined, relative to DMSO, replicates",2.39% and -1.793% and -3.401%
same,% Inhibition (ID list),"TGR [3]; before dilution (-15), list for plotting",101.0% and 101.8% and 97.0%
same,"Superoxide production, Pyrogallol red consumption monitored ΔA540",TGR [4]; condition not given,-0.002664 and -0.002628 and -0.002752
same,"Superoxide production, Pyrogallol red consumption monitored ΔA540",TGR [4]; second of the two columns per substance (condition not given),-5.614e-5 and -5.998e-5
same,NADPH consumption by TGR after exposure,TGR [5],converted TGR to a pro-oxidant enzyme
same,NADPH consumption (rate/ΔOD340),TGR [5]; replicates,-0.001513 and -0.00148 and -0.001553
